In brackets after ≈: the same amount, converted by molar mass. Where two headings read alike, the source gives them in different places.
Experiments:
[1] = tested on: Pseudomonas aeruginosa PAO1 CECT 4122 (ATCC 15692); assay: MIC microdilution, P. aeruginosa; type: cell-based; details: planktonic cells; for MIC50 / MIC: Pseudomonas aeruginosa; for MIC50 / P. aeruginosa MIC50: growth inhibited at 50%; for MIC / P. aeruginosa MIC100: lowest concentration completely inhibiting growth; for MIC: read-out: P. aeruginosa MIC100
Description: (§1) Wild-type P. aeruginosa PAO1 strain CECT 4122 (ATCC 15692) and S. aureus CECT 86 (ATCC 12600) were obtained from the Spanish Type Culture Collection (CECT). All strains were routinely cultivated in TSB medium (Sharlab, Spain) at 37 °C. MIC assays were determined by the microdilution method using TSB broth following the method described by the Clinical and Laboratory standards Institute.[94] In brief, compounds were diluted in a 96-well microtiter plate (tissue culture-treated polystyrene; […]

[2] = tested on: Staphylococcus aureus CECT 86 (ATCC 12600); assay: MIC microdilution, S. aureus; type: cell-based; details: planktonic cells; for MIC50 / MIC: Staphylococcus aureus; for MIC50 / S. aureus MIC50: growth inhibited at 50%; for MIC / S. aureus MIC100: lowest concentration completely inhibiting growth; for MIC: read-out: S. aureus MIC100
Description: as §1

[3] = n-octanol/water distribution coefficient, shake-flask; type: physicochemical; details: n-octanol/buffered aqueous solution, pH 7.40, UV-vis; for logD: pH 7.4, read-out: log D7.4
Description: The titrations were carried out under a nitrogen atmosphere.

A2780 cells [4] = assay: MTT cytotoxicity assay, A2780; type: cell-based, human
A2780cisR cells = assay: MTT cytotoxicity assay, A2780cisR; type: cell-based, human; details: for IC50: MTT assay, 72 h exposure, cisplatin-resistant A2780cisR, read-out: IC50 A2780cis; for RF (resistance factor): IC50(A2780cisR)/IC50(A2780)
HEK293 cells = assay: MTT cytotoxicity assay, HEK293; type: cell-based, human; details: for IC50: MTT assay, 72 h exposure, noncancerous cells; for SF (selectivity factor): IC50(HEK293)/IC50(A2780)
[5] = T = 298 K, I = 0.10 M (KCl)
A2780 cells [6] = assay: Cellular accumulation of Cu by ICP-MS; type: cell-based, human; details: 24 h exposure, 1 μM
Excerpt: The ability of anticancer drugs to penetrate biological membranes, tissues, and barriers underlies their biological, pharmacokinetic, and metabolic properties. These properties can be predicted by calculating physicochemical characteristics of drug candidates using molecular descriptors.[30] […] The results are shown in Table S7 in the Supporting Information. On the basis of the calculated physicochemical parameters, we determined if novel compounds belonged to the drug-like chemical space, which is commonly defined by the well-known Lipinski rule, or to the known drug space (KDS), which includes all small compounds in medical use.[31] […] Following the calculations, we determined the lipophilicity of all compounds experimentally (log D7.4, Tables 1 and 2). It is known that cancer cells accumulate hydrophilic compounds to a smaller extent relative to hydrophobic compounds, thereby affecting their activity. […] As expected, proligands were more lipophilic than the corresponding Cu(II) species, which are positively charged at physiological pH (Figure 3b). […] The lipophilicity of 2–5 increased in the following order 4 < 2 < 3 < 5, and correlated well with their cytotoxicity in cancer cells, with the exception of 3. Subsequently, we determined the total cellular accumulation of Cu in A2780 cells by ICP–MS upon 24 h exposure to 1–6 in comparison with CuCl2 (Table 2). […] The accumulation increased in the order 6 < 1 < 3 < 4 < 2 < 5.
Cellular accumulation of 1–6 was determined in A2780 cells. Cells were seeded into Cellstar 6-well plates (Greiner Bio-one) at a density of 60 × 10^4 cells/well (2 mL per well). After the cells were allowed to resume exponential growth for 24 h, they were exposed to 1–6 at 1 μM for 24 h at 37 °C. The cells were washed twice with 1 mL of PBS and lysed with RIPA lysis buffer for 5–10 min at 4 °C. The cell lysates were scraped from the wells and transferred to separate 1.5 mL microtubes. The supernatant was then collected after centrifugation (13 000 rpm, 4 °C for 15 min) and total protein content of each sample was quantified via Bradford’s assay. Cell lysates were transferred to 2 mL glass vials and then digested with ultrapure 65% HNO3 at 100 °C for 24 h. The resulting solution was diluted to 1 mL (2–4% v/v HNO3) with ultrapure Milli-Q water. Cu content of each sample was quantified by ICP–MS. In was used as an internal standard. Cu and In were measured at m/z 64 and m/z 115, respectively. Metal standards for calibration curve (0, 0.5, 1, 2, 5, 10, 20, and 40 ppb) were freshly prepared before each measurement. All readings were made in triplicates in He mode. For temperature-dependent cellular accumulation experiments, A2780 cells were seeded into 35 n 10 mm tissue culture plates at a density of 60 0 10^4 cells/plate. After the cells were allowed to resume exponential growth for 24 h, they were exposed to 2 at 3 μM for 10, 30, 60, and 120 min at 37 and 4 °C. The subsequent analysis was performed as described above. For energy-dependent experiments, A2780 cells were seeded into 35 5 10 mm tissue culture plates at a density of 1 0 10^6 cells/plate. After the cells were allowed to resume exponential growth for 24 h, they were preincubated with oligomycin (5 μM) for 1 or 4 h or with cycloheximide (100 μM) for 4 h and further co-incubated with 3 μM of 2 at 37 °C. To induce total starvation, after the cells were allowed to resume exponential growth for 24 h, RPMI media was replaced with HBSS, and cells were preincubated in HBSS for 1 h and further incubated with 3 μM of 2 for 1 h at 37 °C. The subsequent analysis was performed as described above.

[7] = Cyclic voltammetry, redox potentials; type: physicochemical; details: first reduction step
Description: To assess the redox properties of 1-6, detailed electrochemical and spectroscopic studies in various solvents were performed using cyclic voltammetry as well as EPR-spectroelectrochemistry. Additionally, the UV-vis spectra of 1-5 were measured (Figure S8). […] The second reduction step occurred at -1.8 V versus Fc^+/Fc (-1.16 V vs NHE) and was less reversible, indicating a ligand-based reduction. […] In aqueous solutions, the reduction potentials shifted to the less negative values, and reduction was less reversible as shown for 2 in Figure S10. […] Cyclic voltammetric experiments were performed as described previously.[46] The cyclic voltammograms were measured in the cathodic region in different solvents (DMSO, methanol, DMSO/H2O). The analytical purity grade LiClO4 (Sigma-Aldrich) and distilled and deionized water were used for preparation of 1 mM aqueous solutions of the investigated complexes 1-6. EPR spectra were recorded with the EMX plus. In situ UV-vis-NIR spectroelectrochemical measurements were performed on a spectrometer (Avantes, Model AvaSpec-2048x14-USB2 in the spectroelectrochemical cell kit ([…]3)) with the Pt-microstructured honeycomb working electrode, purchased from Pine Research Instrumentation. The cell was positioned in the CUV-UV Cuvette Holder (Ocean Optics) connected to the diode-array UV-vis-NIR spectrometer by optical fibers. UV-vis-NIR spectra were processed using the AvaSoft 7.7 software package. Halogen and deuterium lamps were used as light sources (Avantes, Model AvaLight-DH-S-BAL). The in situ EPR spectroelectrochemical experiments were carried out under an argon atmosphere in the EPR flat cell equipped with a large platinum mesh working electrode. The freshly prepared solutions were carefully purged with argon and the electrolytic cell was polarized in the galvanostatic mode directly in the cylindrical EPR cavity TM-110 (ER 4103 TM), and the EPR spectra were measured in situ.

[8] = Homo sapiens, A2780, 72 h exposure

O=C(O)c1cn(C2CC2)c2cc(N3CCNCC3)c(F)cc2c1=O [CPX, ciprofloxacin, reference compound]
MIC50 [1]: 0.5 mg/L (≈ 1.51 µM) | MIC [1]: 2 mg/L (≈ 6.04 µM) | MIC50 [2]: 0.5 mg/L (≈ 1.51 µM) | MIC [2]: 1 mg/L (≈ 3.02 µM)

CN(C)C(=S)N/N=C/c1ccc(CN2CCOCC2)cn1 [HL^2, 5-(Morpholinomethyl)pyridine-2-carboxaldehyde 4,4-Dimethyl-3-thiosemicarbazone]
MIC50 [1]: 70 mg/L (≈ 228 µM) | MIC [1]: 100 mg/L (≈ 325 µM) | MIC50 [2]: 10 mg/L (≈ 32.5 µM) | MIC [2]: 400 mg/L (≈ 1300 µM) | logD [3]: 0.51 | IC50 (A2780 cells [4]; [8]): 0.01 ± 0.001 µM | IC50 (A2780cisR cells; Homo sapiens): 0.035 ± 0.006 µM | IC50 (HEK293 cells; Homo sapiens, HEK293): 0.03 ± 0.005 µM

S=C(NN=Cc1ccc(CN2CCOCC2)cn1)Nc1ccccc1 [HL^5, 5-(Morpholinomethyl)pyridine-2-carboxaldehyde 4-Phenylthiosemicarbazone]
MIC50 [1]: > 500 mg/L | MIC [1]: > 500 mg/L | MIC50 [2]: 10 mg/L (≈ 28.1 µM) | MIC [2]: 300 mg/L (≈ 844 µM) | logD [3]: ≥ 2 | IC50 (A2780 cells [4]; [8]): 0.31 ± 0.08 µM | IC50 (A2780cisR cells; Homo sapiens): 1.1 ± 0.2 µM | IC50 (HEK293 cells; Homo sapiens, HEK293): 0.67 ± 0.06 µM

NC(=S)NN=Cc1ccc(CN2CCOCC2)cn1 [HL^1, 5-(Morpholinomethyl)pyridine-2-carboxaldehyde Thiosemicarbazone]
MIC50 [1]: > 500 mg/L | MIC [1]: > 500 mg/L | MIC50 [2]: 100 mg/L (≈ 358 µM) | MIC [2]: > 400 mg/L | logD [3]: 0.46 | IC50 (A2780 cells [4]; [8]): 7.6 ± 1.9 µM | IC50 (A2780cisR cells; Homo sapiens): 13 ± 1 µM | IC50 (HEK293 cells; Homo sapiens, HEK293): 9.1 ± 1.7 µM

CSC(=N)NN=Cc1ccc(CN2CCOCC2)cn1 [HL^6, 5-(Morpholinomethyl)pyridine-2-carboxaldehyde S-Methylisothiosemicarbazone]
MIC50 [1]: > 500 mg/L | MIC [1]: > 500 mg/L | MIC50 [2]: > 500 mg/L | MIC [2]: > 500 mg/L | S. aureus MIC50 [2]: >500 mg/L | logD [3]: 0.84 | IC50 (A2780 cells [4]; [8]): 157 ± 21 µM | IC50 (A2780cisR cells; Homo sapiens): 426 ± 44 µM | IC50 (HEK293 cells; Homo sapiens, HEK293): 89 ± 2 µM

NC(=NN=Cc1ccc(CN2CCOCC2)cn1)[S][Cu+] [[CuL]+]
logβ ([5]; determined via EDTA displacement study): 19.04(2)

NC(=NN=Cc1ccc(C[NH+]2CCOCC2)cn1)[S][Cu+] [[CuLH]2+]
logβ ([5]; EPR): 24.00(1) | logβ ([5]; UV-vis via CT bands): 24.00(1) | logβ ([5]; UV-vis via d-d bands): 23.96(1) | logβ ([5]; pH-metry): 24.09(3)

NC(=NN=Cc1ccc(CN2CCOCC2)cn1)[S][Cu][OH] [[CuLH41]]
logβ ([5]; EPR): 10.22(1) | logβ ([5]; UV-vis via CT bands): 10.42(1) | logβ ([5]; UV-vis via d-d bands): 10.45(1) | logβ ([5]; pH-metry): 10.45(4)

[Cl][Cu][S]C(=NN=Cc1ccc(CN2CCOCC2)cn1)N1CCOCC1 [complex 4, [Cu(L^4)Cl]]
P. aeruginosa MIC50 [1]: 100 mg/L | P. aeruginosa MIC100 [1]: 400 mg/L | cellular accumulation A2780 (A2780 cells [6]): 3.2 ± 0.7 nmol Cu/mg protein | S. aureus MIC50 [2]: 5 mg/L | S. aureus MIC100 [2]: 10 mg/L | log D7.4 [3]: +0.12 ± 0.01 | IC50 (A2780 cells [4]; 72 h exposure): 0.08 ± 0.01 µM | RF (resistance factor) (A2780cisR cells): 3.3 | IC50 (A2780cisR cells): 0.26 ± 0.04 µM | SF (selectivity factor) (HEK293 cells): 3.0 | IC50 (HEK293 cells): 0.24 ± 0.02 µM | E1/2 Red1 (DMSO) vs Fc+/Fc ([7]; DMSO, vs Fc+/Fc): –0.80 V | E1/2 Red1 (DMSO) vs NHE ([7]; DMSO, vs NHE (in brackets)): –0.16 V | E1/2 Red1 (MeOH) vs Fc+/Fc ([7]; MeOH, vs Fc+/Fc): –0.49 V | E1/2 Red1 (MeOH) vs NHE ([7]; MeOH, vs NHE (in brackets)): +0.15 V

N.N.[Cl][Pt][Cl] [cisplatin, reference compound]
IC50 (A2780 cells [4]; 72 h exposure): 0.44 ± 0.13 µM | RF (resistance factor) (A2780cisR cells): 10.5 | IC50 (A2780cisR cells): 4.6 ± 0.3 µM

CSC(=NN=Cc1ccc(CN2CCOCC2)cn1)[NH][Cu][Cl] [complex 6, [Cu(L^6)Cl]]
P. aeruginosa MIC50 [1]: 200 mg/L | P. aeruginosa MIC100 [1]: NA (NA denotes no antibacterial activity detected (>500 μg/mL)) | cellular accumulation A2780 (A2780 cells [6]): 0.47 ± 0.08 nmol Cu/mg protein | S. aureus MIC100 [2]: NA (NA denotes no antibacterial activity detected (>500 μg/mL)) | log D7.4 [3]: –0.23 ± 0.01 | IC50 (A2780 cells [4]; 72 h exposure): 43 ± 3 µM | RF (resistance factor) (A2780cisR cells): 1.4 | IC50 (A2780cisR cells): 62 ± 6 µM | SF (selectivity factor) (HEK293 cells): 1.7 | IC50 (HEK293 cells): 72 µM
